According to patent publication US7387778B2, “Therapeutic methods and compositions for the treatment of impaired interpersonal and behavioral disorders” (Institut Pasteur, priority 1999, dated 2008):

Experiments:
male Wistar/AF EOPS rats [1] = assay: Behavioral despair test (forced swimming); format: in vivo, rat; conditions: for Immobility period, Test session / Immobility period, Retest session: first 5 minutes; for Immobility period, Test session: test is before any treatment
Procedure: Forty male Wistar/AF EOPS rats (Iffa-Credo Breeding Centre, 69-St-Germain sur l'Arbresle, France), weighing 300 to 320 g, were used. On arrival, the rats were labelled and distributed randomly in pairs into type F polycarbonate cages (48×27×20 cm, U.A.R., 91-Epinay-Sur-Orge, France). The animals were stabled in an air-conditioned animal house, at a temperature of 22-24° C. The rats were given food (M25 croquettes, Ets Piétrement, 77-Provins, France) and drink ad libitum and were subjected to a 12-hour light-darkness cycle.
After one week of familiarization with the laboratory conditions, the rats were weighed and distributed randomly into 3 treatment groups (n=12). The rats of the different groups will all be handled in the same way and under the same conditions.
The behavioral despair test takes place over two sessions: • a 15-minute test session; • a 5-minute retest session, performed 24 hours later.
During the test session, the rat was subjected to forced swimming in a Plexiglas cylinder (20 cm in diameter and 50 cm in height, containing 25 cm of water at 25° C.) and its behavior was recorded over 15 minutes. At the end of the test, the rat was removed from the water, dried gently, treated and then returned to its dwelling cage.
During the retest, 24 hours later, the rat was again placed in the water and its behavior was recorded over 5 minutes.
The recorded variables are the period of immobility during the first 5 minutes of both the test and the retest.
The peptide FG-005 was suspended at a rate of 500 μg per 5 ml of 0.01N acetic acid, and then diluted with PBS to be administered at doses of 50 and 100 μg/kg via the i.v. route into the dorsal caudal vein of the rat, immediately after the test and 300 and 5 minutes before the retest the following day (Table X). 8-OH-DPAT was injected i.p.
A bilateral probability paired t test was used to compare the two periods of immobility of the test with those of the retest in each of the groups. The results are expressed as an average standard error of mean (SEM) (Table XI and FIG. 20). The statistical and graphical processing was performed using Statview5 and DeltaGraph® Pro 3.5 software.

male rats [2] = conditions: high doses; cited from earlier work
male rats [3] = assay: First two post ejaculatory intervals (PEI); format: in vivo, rat
Procedure: All quantitative results are statistically analyzed using a Krukal-Wallis test (KWT), as a between-group variable, followed by Mann-Whitney U-test (MWT) to compare the treated group to control one. Friedman test (FT), as within-group variable, was used for repeated measures across the first three ejaculatory series, followed by Wilcoxon (WT). Data are reported as mean ±SEM. For all statistical evaluations, the level of significance was set at p<0.05. All statistical analyses were carried out using the Statview™ 4.5 statistical package (Abacus Concepts, Inc, Berkeley, Calif.).
Masculine sociosexual behaviors other than copulatory acts were measured and analyzed during the two successive post-ejaculatory intervals. Among these are pursuit of the female, sniffing, grooming, running behind the partner in close contact and anogenital exploration (sniffing, licking and grooming the partner). […] Thus, for a similar amount of time in PEI duration compared to controls, the 3 μg/kg-treated rats spent during this interval, 7 to 10 fold more amount of time to pursue and groom the female.

male Wistar/AF EOPS rats [4] = assay: Behavioral despair test (forced swimming); format: in vivo, rat; conditions: 100 mg/kg; difference not statistically significant
[5] = tested on: male rats with sexually receptive female; assay: Dose-response relationship of FG-005 on male rat sexual behavior; format: in vivo; conditions: for total number of mounts with or without intromission, Mean: 45-min observation
Procedure: Effect of increasing concentrations of FG-005 peptide (SMR1-QHNPR) given i.v. on the number of sexual intercourse episodes of male rats with sexually receptive female, was assessed. All of the […] parameters were analyzed using one-way analysis of variance (ANOVA) for the differences between treated groups and followed by the multiple comparison test of Fisher (PLSD Fisher) to compare each group of FG-005-injected rats with the control group (vehicle-injected rats). Nine to ten rats were used for each group and P value of less than 0.005 was considered as significant for both tests.
This is appreciated by the significant dose-dependent increase of sexual interactions (mounts, mounts with intromission and mounts per ejaculation) during (first ejaculation latency and interejaculatory latency) episodes of sexual intercourse.

male Wistar rats [6] = assay: Behavior of male rats in the presence of receptive females; format: in vivo, rat
Procedure: Behavior tests were performed on 12 male Wistar rats (Iffa Credo, L'Arbresles, France), weighing 260-280 g. They were housed in groups of 4 in a climate controlled room with a 12-h light:dark cycle and had access to food and water ad libitum. After seven days acclimatization period, the rats were weighed, identified and randomly assigned to one of the four treatment groups. The rats were familiarized once with female rats which had been brought to sexual receptivity by injecting estradiol benzoate for 4 days (5 μg/0.5 ml oil, s.c. once daily). Behavioral testing was performed under blind conditions in a dimlight environment 2 hours after the onset of the dark phase of the light/dark cycle. Behavior was assessed by placing the male rat in a plexiglass cage (50×30×20 cm) five minutes before a receptive female was presented. All of the tests on rats were recorded on a VHS-videotape. The recorded parameters were: number of ejaculations, latency of first mount, latency of first ejaculation, number of mounts, postejaculatory interval, avoidance behavior patterns, awareness of other rats presence, initiation or response to social interaction, interest in other rat, self-care, willingness to enter into relationship. All of the quantitative results were analyzed using the Kruskal-Wallis test followed by the Mann-Whitney U-Test to compare each treated group with the control group. The statistical analyzes were carried out using the Statview 4.1 statistical package.

male Wistar rats [7] = assay: Irwin test; format: in vivo, rat; conditions: injected into tail vein, escalating doses
Procedure: An Irwin test was performed on 12 male Wistar rats (Iffa Credo, L'Arbresles, France), weighing 260-280 g. They were housed in groups of 4 in a climate controlled room with a 12 h light:dark cycle (light 8:00 PM-8:00 AM) and had access to food and water ad libitum. After a seven day acclimatization period, the rats were weighed, identified and randomly assigned to one of the four treatment groups. The drug was injected to the tail vein of the rats according to the group dose.
Observations were performed 15, 30, 60 and 120 minutes after administration. Among the most noticeable results are the results concerning the awareness state of the rats. […] Rats injected FG-005 are less stressed as shown by startle response test (FIG. 2), and by the abdominal tone (FIG. 3).

## CCCN(CCC)C1CCc2cccc(O)c2C1 (centres unmarked) [8-OH-DPAT, reference compound]
Male Wistar/AF EOPS rats [1]; 0.5 mg/kg i.p. group
  Immobility period, Test session: 109.20
Male Wistar/AF EOPS rats [1]; 0.5 mg/kg i.p., 1440, 300, 30 min before retest
  Immobility period, Retest session: 31.60
Male Wistar/AF EOPS rats [1]; 8-OH-DPAT 0.5 mg/kg i.p.
  period of immobility, retest compared with test: significantly reduce their period of immobility
Male Wistar/AF EOPS rats [1]; reference substance, 0.5 mg/kg i.p.
  anti-resignation effect: significant anti-resignation effect

## CC[C@H](C)[C@@H]1NC(=O)[C@H](Cc2ccc(O)cc2)NC(=O)[C@@H](N)CSSC[C@@H](C(=O)N2CCC[C@H]2C(=O)N[C@@H](CC(C)C)C(=O)NCC(N)=O)NC(=O)[C@H](CC(N)=O)NC(=O)[C@H](CCC(N)=O)NC1=O [oxytocin]
Male rats [2]
  locomotion: decrease locomotion

## Gln-His-Asn-Pro-Arg (QHNPR; This is a peptide sequence that was designed to achieve therapeutic effects in mammals.) [FG-005, synthesized pentapeptide with N-terminal Glutamine]
Male rats [3]; 1 μg/kg vs control
  duration of the first PEI: significantly longer
Male rats [3]; 0.3, 1 and 3 μg/kg
  duration of the second PEI: not significantly influenced
Male rats [3]; 0.3, 1 and 3 μg/kg vs controls
  duration of male socio-sexual behaviors during the first and second PEI: significantly more time
Male rats [3]; 0.3, 1 and 3 μg/kg vs vehicle controls
  duration of male immobility during the first and second PEI: significantly less time
Male Wistar/AF EOPS rats [4]
  period of immobility, retest compared with test: reduce it
[5]; 0.3 μg/kg i.v.
  mean number of mounts per ejaculation: 20.220
  number of mounts before the first ejaculation, Mean: 31.111
  number of mounts before the fourth ejaculation (interejaculatory interval), Mean: 11.500
  number of mounts before the third ejaculation (interejaculatory interval), Mean: 13.444
  number of mounts with intromission, Mean: 77.111
  total number of mounts with or without intromission, Mean: 81.778
[5]; 1 μg/kg i.v.
  mean number of mounts per ejaculation: 26.911
  number of mounts before the first ejaculation, Mean: 33.444
  number of mounts before the fourth ejaculation (interejaculatory interval), Mean: 19.143
  number of mounts before the third ejaculation (interejaculatory interval), Mean: 18.333
  number of mounts with intromission, Mean: 90.556
  total number of mounts with or without intromission, Mean: 96.667
[5]; 3 μg/Kg vs vehicle-injected rats
  first ejaculation latency: increased significantly
[5]; 3 μg/Kg, 45 min observation period
  total number of ejaculations: lower than that of vehicle-treated rats
[5]; 3 μg/kg i.v.
  mean number of mounts per ejaculation: 36.013
  number of mounts before the first ejaculation, Mean: 37.500
  number of mounts before the fourth ejaculation (interejaculatory interval), Mean: 24.167
  number of mounts before the third ejaculation (interejaculatory interval), Mean: 22.889
  number of mounts with intromission, Mean: 97.700
  total number of mounts with or without intromission, Mean: 110.100
[5]; dose-related manner
  third ejaculation latency: tended also to increase
[5]; pronounced effect at 1 and 3 μg/Kg
  second ejaculation latency: significant dose-related prolongation
[5]; treated vs control rats
  aggressive impulse behavior: loss of aggressive impulse behavior
Male Wistar rats [6]; 3 μg/kg
  Latency of the first mount, Mean: 93.333 s
  latency of first mounts (in words): significantly increased latency
  number of ejaculations in 45 minutes, Mean: 5.333
  refractory period between the second ejaculation and the next mount, Mean: 311.333 s
Male Wistar rats [6]; 15 μg/kg
  Latency of the first mount, Mean: 23.000 s
  number of ejaculations in 45 minutes, Mean: 4.000
  refractory period between the second ejaculation and the next mount, Mean: 412.000 s
Male Wistar rats [6]; 30 μg/kg
  Latency of the first mount, Mean: 13.667 s
  number of ejaculations in 45 minutes, Mean: 4.667
  refractory period between the second ejaculation and the next mount, Mean: 373.667 s
Male Wistar rats [6]; treated vs control rats
  avoidance symptoms during refractory periods: loss of avoidance symptoms
  duration of refractory periods (in words): shortened
Male Wistar rats [6]; treated vs non-treated rats
  interest in the other rat after ejaculation: interest is maintained
  number of episodes of intercourse (number of ejaculations in 45 minutes, in words): significantly increased
  self-care, attention to personal toilet after each penetration: increased
Male Wistar rats [7]
  abdominal tone (FIG. 3): less stressed
  aggressiveness: not associated with an increase of aggressiveness
  finger approach test: increased interest
  startle response test (FIG. 2): less stressed
  vocalization when third parties approach: increased vocalization
  wire maneuver test: Significant response
Male Wistar rats [7]; 15, 30, 60, 120 minutes
  tail pinch test (FIGS. 4-7): less reactivity to nociceptive stimuli
Male Wistar rats [7]; after 2 hours of tests
  awareness state / sleep (FIG. 1): much less likely to fall asleep
Male Wistar/AF EOPS rats [1]; 50 μg/kg i.v., 1440, 300, 5 min before retest
  Immobility period, Retest session: 141.20 ± 21.28
Male Wistar/AF EOPS rats [1]; 50 μg/kg, difference not statistically significant
  period of immobility, retest compared with test: increase their period of immobility
Male Wistar/AF EOPS rats [1]; 100 μg/kg i.v., 1440, 300, 5 min before retest
  Immobility period, Retest session: 121.50 ± 17.47
Male Wistar/AF EOPS rats [1]; 50 and 100 μg/kg, i.v.
  behavioral resignation (antidepressant effect): no behavioral resignation
Male Wistar/AF EOPS rats [1]; FG-50 group, 50 μg/kg i.v.
  Immobility period, Test session: 119.00 ± 13.79
Male Wistar/AF EOPS rats [1]; FG-100 group, 100 μg/kg i.v.
  Immobility period, Test session: 138.30 ± 11.03
